The source made the active and inactive calls.
Assays:
[1] = HEK293T cytotoxicity, dose response, cytotoxicity control for miR-122 modulator project, cell-based, activator set, cherry-pick (AID 720690); format: functional;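 further: HEK293T human cells scored for general mammalian cytotoxicity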
[2] = LMP1-driven NF-kB reporter inhibition, dose response, cell-based, luciferase reporter, luminescence, dry powder, set 2 (AID 624376); format: functional
[3] = CEM21 lymphoblast cell cytotoxicity, dose response, cytotoxicity control for viral fusion inhibitor project, CellTiter-Glo luminescence, cherry-picked (AID 652042); format: functional, cell-based;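 further: potency for signal decrease meaning cytotoxicity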
[4] = inhibitors of HIV Env-driven cell fusion, dose response, cherry-pick (AID 652057); format: functional, cell-based
[5] = molecular target: Nuclear receptor subfamily 5 group A member 2 (Homo sapiens, UniProt O00482); format: functional, cell-based;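 further: HEK293T cells transfected with LRH-1 and a StAR promoter luciferase reporter; potency for inhibitors that lower LRH-1 driven reporter light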
[6] = molecular target: T1, Heat shock factor protein 1 (Mus musculus, UniProt P38532); assay: inhibition of MG132-induced HSE-luciferase signal, confirmation, cell-based, NIH3T3, luminescence, dose retest (AID 2382); format: functional;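 further: NIH3T3 fibroblasts with HSF1-driven luciferase reporter stressed by proteasome inhibitor MG132; luminescence from HSF1-driven luciferase expression after 8 hours of MG132 stress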
T1 sequence (P38532 whole entry): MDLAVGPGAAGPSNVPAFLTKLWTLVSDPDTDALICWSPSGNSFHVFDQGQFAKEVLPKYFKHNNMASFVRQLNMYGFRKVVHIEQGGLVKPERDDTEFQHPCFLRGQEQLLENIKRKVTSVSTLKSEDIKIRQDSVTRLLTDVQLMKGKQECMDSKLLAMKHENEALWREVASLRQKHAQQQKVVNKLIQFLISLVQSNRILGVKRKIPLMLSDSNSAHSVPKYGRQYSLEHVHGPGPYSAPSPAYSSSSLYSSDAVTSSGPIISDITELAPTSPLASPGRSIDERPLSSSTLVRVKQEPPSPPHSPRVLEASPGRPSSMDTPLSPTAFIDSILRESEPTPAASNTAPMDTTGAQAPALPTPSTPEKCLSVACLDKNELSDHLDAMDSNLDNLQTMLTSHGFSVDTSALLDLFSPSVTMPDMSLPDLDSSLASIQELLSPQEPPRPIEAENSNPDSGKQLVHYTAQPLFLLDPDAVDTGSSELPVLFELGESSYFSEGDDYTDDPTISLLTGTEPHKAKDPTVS

[7] = StAR promoter reporter inhibition counter-screen, dose response, counter-screen for LRH-1 inverse agonist project, cell-based, luminescence, luciferase reporter (AID 651969); format: functional
Steroidogenic factor 1 = Steroidogenic factor 1 (Homo sapiens, UniProt Q13285); assay: Counterscreen for inverse agonists of the liver receptor homolog-1 (LRH-1; NR5A2): Luminescence-based cell-based high throughput dose response assay to identify inverse agonists of the Steroidogenic Factor 1 Nuclear Receptor (SF1; NR5A1).; format: functional
[8] = molecular target: Adenosylmethionine-8-amino-7-oxononanoate aminotransferase (Mycobacterium tuberculosis, UniProt P9WQ81); assay: Mycobacterium tuberculosis BioA enzyme inhibitor Measured in Biochemical System Using Plate Reader - 2163-02_Inhibitor_Dose_CherryPick_Activity.; format: functional, Mycobacterium tuberculosis UT205
[9] = HEp-2 cell cytotoxicity, dose response, cytotoxicity control for RSV inhibitor project, HTS (AID 2410); format: functional; conditions: human respiratory syncytial virus
Vero = assay: cells; format: functional, cell-based; conditions: Chlorocebus sabaeus
cells [10] = format: functional, cell-based
[11] = inhibitors of firefly luciferase expression or activity, dose response, H4 neuroglioma cells, luminescence (AID 1990); format: functional, cell-based
cells [12] = assay: cells
[13] = Luminescence Cell-Based Dose Response HTS to Identify Inhibitors of 5'UTR Stem-Loop Driven Prion Protein mRNA Translation in H4 Neuroglioblastoma Cells. [Related pubchem assays: 1827 (Project Summary), 1813 (Primary HTS)]; format: functional
[14] = molecular target: T2, Nuclear receptor subfamily 0 group B member 1 (Homo sapiens, UniProt P51843); format: functional, cell-based;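 further: HEK293T cells transfected with SF-1 and DAX-1 plus StAR promoter luciferase reporter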
T2 sequence (P51843 whole entry): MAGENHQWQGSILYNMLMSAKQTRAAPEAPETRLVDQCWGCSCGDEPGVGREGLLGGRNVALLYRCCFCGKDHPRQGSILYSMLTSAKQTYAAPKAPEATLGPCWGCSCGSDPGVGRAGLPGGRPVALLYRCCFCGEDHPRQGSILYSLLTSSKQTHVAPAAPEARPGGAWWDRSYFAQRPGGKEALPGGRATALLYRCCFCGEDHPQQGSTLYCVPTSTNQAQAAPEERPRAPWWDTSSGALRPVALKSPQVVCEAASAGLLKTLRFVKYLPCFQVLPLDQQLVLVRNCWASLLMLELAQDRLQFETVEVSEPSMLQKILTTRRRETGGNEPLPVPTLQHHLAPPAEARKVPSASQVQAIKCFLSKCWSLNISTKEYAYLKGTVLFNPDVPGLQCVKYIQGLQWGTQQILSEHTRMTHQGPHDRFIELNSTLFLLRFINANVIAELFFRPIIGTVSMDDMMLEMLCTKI

[15] = inhibitors of SNCA 5'UTR-driven reporter translation, confirmation, H4 neuroglioma cells, luminescence (AID 1988); format: functional, cell-based
[16] = molecular target: T3, Low molecular weight phosphotyrosine protein phosphatase (Homo sapiens, UniProt P24666); format: functional; conditions: read-out: IC50_Mean
T3 sequence (P24666 whole entry): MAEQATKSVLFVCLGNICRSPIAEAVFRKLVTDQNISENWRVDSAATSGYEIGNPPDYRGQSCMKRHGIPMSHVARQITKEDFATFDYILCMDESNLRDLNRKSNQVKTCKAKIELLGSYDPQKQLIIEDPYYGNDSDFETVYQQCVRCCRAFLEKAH

[17] = molecular target: T4, Carboxy-terminal domain RNA polymerase II polypeptide A small phosphatase 1 (Homo sapiens, UniProt Q9GZU7); assay: inhibitors of CTDSP1, concentration-response testing, biochemical assay, absorbance-based, actives from ultra-high-throughput screening (AID 540297); format: functional
T4 sequence (Q9GZU7 whole entry): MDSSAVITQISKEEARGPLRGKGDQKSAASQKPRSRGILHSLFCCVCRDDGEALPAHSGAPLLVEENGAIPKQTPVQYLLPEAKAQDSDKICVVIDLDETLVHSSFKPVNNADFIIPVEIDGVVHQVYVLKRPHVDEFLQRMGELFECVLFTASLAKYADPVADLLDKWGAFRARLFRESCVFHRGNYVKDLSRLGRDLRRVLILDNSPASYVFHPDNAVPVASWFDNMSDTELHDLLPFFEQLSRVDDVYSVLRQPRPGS

[18] = molecular target: T3, Low molecular weight phosphotyrosine protein phosphatase; format: functional; conditions: read-out: IC50_Mean; remark: listed apart in the source
[19] = molecular target: Long-chain-fatty-acid--AMP ligase FadD28 (Mycobacterium tuberculosis, UniProt P9WQ59); assay: Fluorescence polarization aasay to screen for inhibitors that compete for the binding of FadD28 to a bisubstrate Measured in Biochemical System Using Plate Reader - 2147-01_Inhibitor_Dose_CherryPick_Activity.; format: functional, Mycobacterium tuberculosis H37Rv
Protein Wnt-3a = Protein Wnt-3a (Mus musculus, UniProt P27467); assay: Wnt3a-driven reporter signaling inhibition, dose response, selectivity assay for Gli-SUFU antagonist project, Wnt-LIGHT cells, luminescence (AID 651570); format: functional; conditions: read-out: IC50_Mean;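 further: Wnt-LIGHT reporter cells stimulated with conditioned medium from Wnt3a-producing cells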
[20] = molecular target: Tyrosine-protein phosphatase non-receptor type 5 (Homo sapiens, UniProt P54829); assay: STEP phosphatase inhibitors, confirmation, biochemical, fluorescence intensity, uHTS hits (AID 602372); format: functional; conditions: read-out: IC50_Mean
[21] = molecular target: Tyrosine-protein phosphatase non-receptor type 11 (Homo sapiens, UniProt Q06124); assay: SHP2 phosphatase inhibition, dose response, selectivity assay for STEP inhibitor project, biochemical (AID 602367); format: functional; conditions: read-out: IC50_Mean
[22] = molecular target: Dual specificity protein phosphatase 3 (Homo sapiens, UniProt P51452); assay: VHR phosphatase inhibition, dose response, selectivity assay for STEP inhibitor project, biochemical (AID 602374); format: functional; conditions: read-out: IC50_Mean
[23] = Fluorescence-based cell-based high throughput dose response assay for inhibitors of the interaction of nucleotide-binding oligomerization domain containing 2 (NOD2) and the receptor-interacting serine-threonine kinase 2 (RIPK2).; format: functional; conditions: Homo sapiens
[24] = molecular target: DNA dC->dU-editing enzyme APOBEC-3A (Homo sapiens, UniProt P31941); assay: Dose Response confirmation of small molecule APOBEC3A DNA Deaminase Inhibitors via a fluorescence-based single-stranded DNA deaminase assay. [Related pubchem assays (depositor defined):AID493011, AID493024]; format: functional
cells [25] = format: functional, cell-based; conditions: HEK-CNG
[26] = inhibitors of intracellular T. cruzi replication, confirmation, NIH3T3 host cells, beta-gal luminescence (AID 2044); format: functional, cell-based;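 further: intracellular parasites grown in NIH/3T3 mouse fibroblasts as host cells; luminescent beta-galactosidase reporter signal from transgenic T. cruzi replicating inside host cells; inhibitors lower the luminescence signal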
Galanin receptor type 3 = Galanin receptor type 3 (Homo sapiens, UniProt O60755); assay: Fluorescence-based cell-based primary high throughput dose response assay to identify antagonists of the Galanin Receptor 3 (GalR3).; format: functional
[27] = molecular target: DNA dC->dU-editing enzyme APOBEC-3G (Homo sapiens, UniProt Q9HC16); format: functional;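 further: Dose-response counterscreen measuring inhibition of APOBEC3G DNA deaminase activity, run while confirming APOBEC3A inhibitors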
[28] = cytotoxicity toward NIH3T3 fibroblasts, dose response, counter-screen, cell-based, ATP luminescence, mouse fibroblasts (AID 2010); format: functional;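 further: cells exposed to compound for about 90 hours before reading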
[29] = HepG2 cell cytotoxicity, dose response, cytotoxicity control for Shn3 inhibitor project, CellTiter-Glo, cherry-picked (AID 624134); format: functional, cell-based
[30] = control 3'UTR Renilla luciferase suppression, dose response, counter-screen for Shn3 inhibitor project, cell-based, Clone20-Shn3RL, cherry-picked (AID 624133); format: functional
[31] = Shn3 3'UTR reporter inhibitors, dose response, cell-based, Clone20 osteoblasts, firefly luciferase, cherry-picked (AID 624132); format: functional;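 further: firefly luciferase luminescence from reporter carrying the Shn3 3'UTR in osteoblasts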
INS1 = assay: beta cell apoptosis inhibitors, cytokine rescue, dose response, luminescence, retest (AID 449756); format: functional, cell-based; conditions: Rattus norvegicus;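 further: cell death triggered by IL-1 beta plus TNF-alpha plus IFN-gamma mixture; protective hits raise ATP signal compared with cytokine alone wells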

Sequence of Long-chain-fatty-acid--AMP ligase FadD28 (P9WQ59 whole entry): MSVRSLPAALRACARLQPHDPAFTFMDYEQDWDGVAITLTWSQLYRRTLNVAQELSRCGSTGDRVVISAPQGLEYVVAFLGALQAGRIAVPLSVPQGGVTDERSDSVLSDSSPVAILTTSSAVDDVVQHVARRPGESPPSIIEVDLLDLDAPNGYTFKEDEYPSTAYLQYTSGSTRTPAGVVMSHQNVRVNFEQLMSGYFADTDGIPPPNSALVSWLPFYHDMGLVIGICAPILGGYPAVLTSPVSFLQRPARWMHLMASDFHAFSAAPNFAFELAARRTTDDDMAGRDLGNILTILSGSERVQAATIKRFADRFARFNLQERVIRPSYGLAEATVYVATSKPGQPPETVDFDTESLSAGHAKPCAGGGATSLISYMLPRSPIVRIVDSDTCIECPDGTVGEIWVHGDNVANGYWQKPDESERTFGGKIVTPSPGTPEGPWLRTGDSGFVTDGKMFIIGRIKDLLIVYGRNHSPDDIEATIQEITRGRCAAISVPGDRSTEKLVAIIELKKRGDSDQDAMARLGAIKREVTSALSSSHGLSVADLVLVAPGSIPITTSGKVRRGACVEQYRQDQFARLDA
Sequence of Protein Wnt-3a (P27467 whole entry): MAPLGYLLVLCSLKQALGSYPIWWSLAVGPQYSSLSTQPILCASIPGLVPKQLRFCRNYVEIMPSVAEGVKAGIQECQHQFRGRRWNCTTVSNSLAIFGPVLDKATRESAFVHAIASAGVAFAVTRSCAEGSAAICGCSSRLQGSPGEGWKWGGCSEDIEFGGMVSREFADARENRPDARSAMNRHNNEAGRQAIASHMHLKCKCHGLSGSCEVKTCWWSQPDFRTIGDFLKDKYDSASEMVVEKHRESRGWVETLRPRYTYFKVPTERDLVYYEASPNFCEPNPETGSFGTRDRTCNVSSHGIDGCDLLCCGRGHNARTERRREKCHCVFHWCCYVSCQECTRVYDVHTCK
Sequence of Nuclear receptor subfamily 5 group A member 2 (O00482 whole entry): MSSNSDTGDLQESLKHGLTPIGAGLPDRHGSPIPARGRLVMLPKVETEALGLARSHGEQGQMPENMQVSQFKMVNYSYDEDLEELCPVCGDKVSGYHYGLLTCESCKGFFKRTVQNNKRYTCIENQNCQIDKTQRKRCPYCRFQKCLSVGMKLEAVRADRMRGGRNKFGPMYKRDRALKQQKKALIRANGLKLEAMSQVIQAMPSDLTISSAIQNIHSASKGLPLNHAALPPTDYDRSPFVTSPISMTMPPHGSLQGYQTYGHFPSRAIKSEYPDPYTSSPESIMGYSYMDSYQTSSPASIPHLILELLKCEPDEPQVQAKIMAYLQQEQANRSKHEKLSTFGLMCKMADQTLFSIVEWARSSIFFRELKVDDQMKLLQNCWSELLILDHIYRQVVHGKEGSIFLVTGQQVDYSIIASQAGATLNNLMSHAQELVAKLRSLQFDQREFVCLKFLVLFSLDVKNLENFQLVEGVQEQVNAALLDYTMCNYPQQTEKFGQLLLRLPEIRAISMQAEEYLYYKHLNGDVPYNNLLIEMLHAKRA
Sequence of Adenosylmethionine-8-amino-7-oxononanoate aminotransferase (P9WQ81 whole entry): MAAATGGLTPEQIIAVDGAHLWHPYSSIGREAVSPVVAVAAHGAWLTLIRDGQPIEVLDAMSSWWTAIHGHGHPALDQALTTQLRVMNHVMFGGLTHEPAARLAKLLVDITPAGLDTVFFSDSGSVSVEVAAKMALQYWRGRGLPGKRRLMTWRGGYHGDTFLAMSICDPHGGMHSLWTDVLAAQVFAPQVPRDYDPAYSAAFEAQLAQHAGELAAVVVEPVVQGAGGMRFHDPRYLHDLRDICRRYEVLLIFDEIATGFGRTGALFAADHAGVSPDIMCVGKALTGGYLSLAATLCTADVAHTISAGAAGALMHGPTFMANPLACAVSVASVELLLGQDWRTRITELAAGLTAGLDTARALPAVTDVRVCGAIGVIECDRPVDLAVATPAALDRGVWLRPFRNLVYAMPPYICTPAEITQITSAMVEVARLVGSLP
Sequence of Steroidogenic factor 1 (Q13285 whole entry): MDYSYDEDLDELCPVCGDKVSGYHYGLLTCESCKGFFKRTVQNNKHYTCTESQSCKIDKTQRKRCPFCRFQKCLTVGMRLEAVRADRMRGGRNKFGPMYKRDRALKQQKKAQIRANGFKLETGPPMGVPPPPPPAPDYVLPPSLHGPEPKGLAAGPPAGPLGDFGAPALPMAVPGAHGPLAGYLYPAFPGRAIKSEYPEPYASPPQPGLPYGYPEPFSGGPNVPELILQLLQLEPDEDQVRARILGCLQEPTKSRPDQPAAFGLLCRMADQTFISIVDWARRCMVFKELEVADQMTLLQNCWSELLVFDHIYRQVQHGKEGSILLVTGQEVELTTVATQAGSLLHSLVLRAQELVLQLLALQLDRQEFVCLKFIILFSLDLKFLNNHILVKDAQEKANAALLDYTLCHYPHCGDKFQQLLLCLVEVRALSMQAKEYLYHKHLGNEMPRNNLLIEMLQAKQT
Sequence of DNA dC->dU-editing enzyme APOBEC-3G (Q9HC16 whole entry): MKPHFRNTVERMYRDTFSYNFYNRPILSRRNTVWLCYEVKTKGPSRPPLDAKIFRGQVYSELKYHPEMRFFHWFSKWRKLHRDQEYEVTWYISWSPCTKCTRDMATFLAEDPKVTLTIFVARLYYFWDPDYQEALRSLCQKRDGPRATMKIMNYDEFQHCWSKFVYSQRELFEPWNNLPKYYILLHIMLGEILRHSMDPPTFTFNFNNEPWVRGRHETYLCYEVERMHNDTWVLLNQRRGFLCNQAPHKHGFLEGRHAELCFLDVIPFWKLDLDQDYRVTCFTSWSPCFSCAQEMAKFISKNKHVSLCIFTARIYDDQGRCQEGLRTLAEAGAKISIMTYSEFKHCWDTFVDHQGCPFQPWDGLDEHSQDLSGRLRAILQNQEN
Sequence of Galanin receptor type 3 (O60755 whole entry): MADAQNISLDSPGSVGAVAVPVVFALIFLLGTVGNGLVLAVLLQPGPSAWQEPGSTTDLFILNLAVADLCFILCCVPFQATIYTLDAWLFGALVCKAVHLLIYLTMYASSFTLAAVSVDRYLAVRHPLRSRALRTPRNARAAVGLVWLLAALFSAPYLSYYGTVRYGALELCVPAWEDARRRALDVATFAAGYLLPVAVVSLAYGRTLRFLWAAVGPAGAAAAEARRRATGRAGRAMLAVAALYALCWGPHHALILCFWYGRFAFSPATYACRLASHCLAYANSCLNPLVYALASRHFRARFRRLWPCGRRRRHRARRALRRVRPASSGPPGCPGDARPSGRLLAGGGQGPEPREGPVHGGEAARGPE
Sequence of Tyrosine-protein phosphatase non-receptor type 5 (P54829 whole entry): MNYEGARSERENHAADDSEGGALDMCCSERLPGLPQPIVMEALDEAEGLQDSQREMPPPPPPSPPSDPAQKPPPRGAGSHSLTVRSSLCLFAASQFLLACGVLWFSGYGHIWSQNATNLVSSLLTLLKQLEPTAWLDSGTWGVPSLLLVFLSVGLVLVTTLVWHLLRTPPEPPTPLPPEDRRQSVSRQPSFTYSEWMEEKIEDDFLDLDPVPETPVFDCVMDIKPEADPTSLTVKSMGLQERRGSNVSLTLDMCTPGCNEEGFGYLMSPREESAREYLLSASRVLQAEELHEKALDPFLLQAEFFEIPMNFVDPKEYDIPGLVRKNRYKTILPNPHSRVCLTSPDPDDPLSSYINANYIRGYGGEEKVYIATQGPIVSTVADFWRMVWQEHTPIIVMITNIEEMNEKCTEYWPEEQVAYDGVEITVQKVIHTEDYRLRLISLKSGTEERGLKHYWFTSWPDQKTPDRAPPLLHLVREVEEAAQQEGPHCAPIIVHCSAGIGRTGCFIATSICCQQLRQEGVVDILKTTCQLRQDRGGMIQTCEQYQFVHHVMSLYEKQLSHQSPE
Sequence of Tyrosine-protein phosphatase non-receptor type 11 (Q06124 whole entry): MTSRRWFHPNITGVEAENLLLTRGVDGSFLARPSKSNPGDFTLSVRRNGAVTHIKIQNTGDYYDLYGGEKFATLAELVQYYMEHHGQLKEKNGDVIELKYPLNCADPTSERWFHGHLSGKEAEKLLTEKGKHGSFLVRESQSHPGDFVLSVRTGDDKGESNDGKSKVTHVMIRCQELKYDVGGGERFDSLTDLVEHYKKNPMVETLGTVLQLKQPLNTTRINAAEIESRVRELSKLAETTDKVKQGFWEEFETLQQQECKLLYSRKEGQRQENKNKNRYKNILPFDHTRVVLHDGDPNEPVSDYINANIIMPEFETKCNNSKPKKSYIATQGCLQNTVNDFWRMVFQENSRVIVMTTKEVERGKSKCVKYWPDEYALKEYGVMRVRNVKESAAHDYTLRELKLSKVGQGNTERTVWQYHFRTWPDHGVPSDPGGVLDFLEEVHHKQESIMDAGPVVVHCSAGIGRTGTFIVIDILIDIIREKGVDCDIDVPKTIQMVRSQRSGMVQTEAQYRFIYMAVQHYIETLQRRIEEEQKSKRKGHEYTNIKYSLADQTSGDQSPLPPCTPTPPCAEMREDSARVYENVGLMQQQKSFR
Sequence of Dual specificity protein phosphatase 3 (P51452 whole entry, the tested form may be a part): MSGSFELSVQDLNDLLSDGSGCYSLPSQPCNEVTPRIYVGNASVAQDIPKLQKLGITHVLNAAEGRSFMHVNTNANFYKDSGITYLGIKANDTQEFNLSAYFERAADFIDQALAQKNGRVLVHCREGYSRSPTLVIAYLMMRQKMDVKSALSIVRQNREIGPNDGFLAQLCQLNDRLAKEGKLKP
Sequence of DNA dC->dU-editing enzyme APOBEC-3A (P31941 whole entry): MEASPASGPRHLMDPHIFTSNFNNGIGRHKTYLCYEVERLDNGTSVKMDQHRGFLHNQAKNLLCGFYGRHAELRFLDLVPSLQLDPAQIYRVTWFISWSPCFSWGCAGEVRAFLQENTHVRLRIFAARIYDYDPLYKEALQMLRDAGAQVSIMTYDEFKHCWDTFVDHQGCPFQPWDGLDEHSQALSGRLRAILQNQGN

## COc1ccc(NC(=O)N(C)C[C@@H]2Oc3cc(C#CCC(C)C)ccc3S(=O)(=O)N([C@@H](C)CO)C[C@@H]2C)cc1
[1]
  AC50: 26.8 µM (active)
[2]
  AbsAC35: 43.42 µM

## COCCCNC(=O)c1sc2ncnc(N3CCc4ccccc4C3)c2c1C
[3]
  AC50: 6.66 µM (active)
[4]
  AC50: 3.98 µM (active)

## Cc1c(Cl)cccc1NC(=O)CS(=O)(=O)c1ccccc1
[5]
  IC50: 3.98 µM (active)
[6]
  EC50: > 195 µM (not active)
[7]
  IC50: 35.8 µM (inactive)
Steroidogenic factor 1
  IC50: 9.39 µM (active)

## CCOC(=O)C1(CCc2ccccc2)CCN(C(=O)CN2CCOC2=O)CC1
[8]
  AC50: 3.89 µM (active)

## Nc1cnn(C2OC(CO)C(O)C2O)c(=O)n1 (stereo unspecified)
[9]
  CC50: 5.98 µM (active)
Vero
  IC50: 11.8 µM (active)
Cells [10]
  IC50: > 67.5 µM (inactive)
[11]
  EC50: 14.3 µM (active)
Cells [12]
  IC50: 1.91 µM (active)
[13]
  EC50: > 120 µM (not active)
[14]
  IC50: > 22.5 µM (inactive)
[15]
  EC50: 14.7 µM (active)

## CCc1ccc(NC(=O)C[S+]([O-])CC(=O)Nc2ccc(N3CCOCC3)cc2)cc1 (stereo unspecified)
[16]
  IC50: 17.4 µM (active)
[17]
  IC50: 5.78 µM (active)
[18]
  IC50: 16.8 µM (active)

## CNC(=O)C[C@H]1CC[C@@H]2[C@H](COC[C@@H](O)CN2C(=O)Nc2ccc(Cl)c(Cl)c2)O1
[8]
  AC50: 1.88 µM (active)

## CCCNC(=O)c1sc2c(c1C(=O)Nc1ccccn1)CCCC2
[5]
  IC50: 14.5 µM (inactive)
[7]
  IC50: 35.9 µM (inactive)
Steroidogenic factor 1
  IC50: 8.39 µM (active)

## CCOC(=O)c1ccc(NC(=S)N(CCN(C)C)Cc2cccs2)cc1
[19]
  AC50: > 100 µM (inactive)

## CCOc1ccc(NS(=O)(=O)c2cccc(C(=O)N3CCN(C/C=C/c4ccccc4)CC3)c2)cc1
Protein Wnt-3a
  IC50: 22.7 µM (inactive)

## S=C(NCCCN1CCOCC1)Nc1ccc(-c2nc3ccccc3[nH]2)cc1
[20]
  IC50: 56.7 µM (inactive)
[21]
  IC50: 3.45 µM (active)
[22]
  IC50: 3.03 µM (active)

## CCOC(=O)[C@]12Cc3c(cc(OC)c(OC)c3OC)[C@H]1N(C1CCCCC1)C(=O)c1cc(OC)ccc12
[23]
  IC50: 2.36 µM (active)

## CC1(C)CC(N2CCCCC2)=CC(=[N+]2CCCCC2)C1
[24]
  IC50: 2.2 µM (active)
Cells [25]
  EC50: > 29.9 µM (inactive)
[26]
  EC50: 0.369 µM (active)
Galanin receptor type 3
  IC50: 3.67 µM (active)
[27]
  IC50: 4.57 µM (active)
[28]
  EC50: 21.5 µM (active)

## CC(/C=N/NC(=O)c1ccc(Br)cc1)=C\c1ccccc1
[16]
  IC50: 17.2 µM (active)
[18]
  IC50: 28.5 µM (inactive)

## O=C(NCCSCc1ccc(Cl)cc1Cl)c1ccc(CN2CCOCC2)cc1
[19]
  AC50: 15.7 µM (active)

## O=C(c1cc2sccc2n1Cc1ccc(F)cc1)N1CCN(c2nc3ccccc3s2)CC1
Protein Wnt-3a
  IC50: 5.49 µM (active)
[29]
  AC50: 3.48 µM (active)
[30]
  AC50: 1.71 µM (active)
[31]
  AC50: 1.36 µM (active)
INS1
  AC50: 3.42 µM (active)

## Cc1cc(C(=O)NCCc2ccc(Cl)cc2)c(C)o1
Cells [10]
  IC50: > 67.5 µM (inactive)
[14]
  IC50: > 67.5 µM (inactive)

Reference: ChEMBL document CHEMBL1201862, “PubChem BioAssay data set” (2004)
